In US11286239B2, “Angiotensin II receptor 2 antagonist salt form and crystalline form, and preparation method therefor” (SHANDONG DANHONG PHARMACEUTICAL CO., LTD., priority 2018, dated 2022):

Legend:
[1] = Hygroscopicity study by dynamic vapor sorption (DVS); format: physicochemical; conditions: 25° C. and 80% RH
Protocol: Test conditions: a sample (10-15 mg) is placed in DVS sample tray for testing.
Balance: dm/dt=0.01%/min (shortest: 10 min, longest: 180 min)
Drying: drying for 120 min at 0% RH
RH (%) test gradient: 10%
RH (%) test gradient range: 0%-90%-0%
The hygroscopicity property is evaluated and classified as follows: […]

[2] = Solid stability test; format: physicochemical
Protocol: […] The samples placed at the conditions of high temperature (60° C.) and high humidity (92.5% humidity, room temperature) were taken to test XRPD and purity on the 5th day and 10 days. Samples placed at high temperature and high humidity (40° C./75% humidity, 60° C./75% humidity) were taken to test XRPD and purity on the 10th day, 1 month, 2 months, and 3 months. The samples placed under light irradiation conditions were taken for testing when a total illuminance reached 1.2×10^6 Lux·hr. The test results are compared with the beginning test results of 0 day.

[3] = 40° C., relative humidity 75%, open, 1M
[4] = 40° C., relative humidity 75%, open, 2M
[5] = 40° C., relative humidity 75%, open, 3M
[6] = 40° C., relative humidity 75%, open, 10 days
[7] = 60° C., relative humidity 75%, open, 1M
[8] = 60° C., relative humidity 75%, open, 2M
[9] = 60° C., relative humidity 75%, open, 3M
[10] = 60° C., relative humidity 75%, open, 10 days
[11] = High humidity (room temperature/relative humidity 92.5%, open), 5 days
[12] = High humidity (room temperature/relative humidity 92.5%, open), 10 days
[13] = High temperature (60° C., open), 5 days
[14] = High temperature (60° C., open), 10 days
[15] = Light irradiation (total illuminance of 1.2 × 10^6 Lux·hr/near ultraviolet 200 w·hr/m^2, open)

With `COc1ccc2c(c1OCc1ccccc1)C[C@@H](C(=O)O)N(C(=O)[C@@H](OC1CCCC1)c1ccccc1)C2` [crystalline form “B”] the Classification of hygroscopicity [1] was “almost no hygroscopicity”, the “ΔW, weight gain caused by hygroscopicity” value [1] was 0.05327% and the “Crystalline form (XRPD)” value ([2]; 0 day) was “Crystalline form “B””. For the same compound, the Purity ([2]; 0 day) was 99.89%, the “Crystalline form (XRPD)” value [2, 3] was “Crystalline form “B”” and the Purity [2, 3] was 99.92%. The “Crystalline form (XRPD)” value [2, 4] was “Crystalline form “B””, the Purity [2, 4] was 99.87% and the “Crystalline form (XRPD)” value [2, 5] was “Crystalline form “B””. For the same compound, the Purity [2, 5] was 99.87%, the “Crystalline form (XRPD)” value [2, 6] was “Crystalline form “B”” and the Purity [2, 6] was 99.93%. For the same compound, the “Crystalline form (XRPD)” value [2, 7] was “Crystalline form “B””, the Purity [2, 7] was 99.90% and the “Crystalline form (XRPD)” value [2, 8] was “Crystalline form “B””. The Purity [2, 8] was 99.78%, the “Crystalline form (XRPD)” value [2, 9] was “Crystalline form “B”” and the Purity [2, 9] was 99.80%. The “Crystalline form (XRPD)” value [2, 10] was “Crystalline form “B””, the Purity [2, 10] was 99.92% and the “Crystalline form (XRPD)” value [2, 11] was “Crystalline form “B””. The Purity [2, 11] was 99.93%, the “Crystalline form (XRPD)” value [2, 12] was “Crystalline form “B”” and the Purity [2, 12] was 99.92%. For the same compound, the “Crystalline form (XRPD)” value [2, 13] was “Crystalline form “B””, the Purity [2, 13] was 99.93% and the “Crystalline form (XRPD)” value [2, 14] was “Crystalline form “B””. For the same compound, the Purity [2, 14] was 99.93%, the “Crystalline form (XRPD)” value [2, 15] was “Crystalline form “B”” and the Purity [2, 15] was 99.96%. For the same compound, the Solid stability conclusion ([2]; high temperature, high humidity, strong light and accelerated conditions) was “good crystal stability and good chemical stability”.
